Activity calls are given as the source filed them. No stated cut-off is given here; in the data, actives have a measured IC50 and inactives only a lower limit.
Assays:
Type in all cases: functional
[1] = biological target: T1, Caspase-3 (Homo sapiens, UniProt P42574);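 further: Dose-response selectivity test against caspase-3 for candidate inhibitors of sentrin-specific proteases (SENPs)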
T1 sequence (P42574 whole entry): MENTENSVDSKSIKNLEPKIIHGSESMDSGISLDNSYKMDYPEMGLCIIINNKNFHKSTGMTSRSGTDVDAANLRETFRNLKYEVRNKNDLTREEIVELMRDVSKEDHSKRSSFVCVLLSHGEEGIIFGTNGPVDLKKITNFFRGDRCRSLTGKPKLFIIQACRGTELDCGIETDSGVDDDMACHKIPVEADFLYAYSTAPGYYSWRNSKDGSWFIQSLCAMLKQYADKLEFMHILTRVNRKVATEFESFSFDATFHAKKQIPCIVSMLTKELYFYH

[2] = biological target: T2, Sentrin-specific protease 7 (Homo sapiens, UniProt Q9BQF6);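 further: Luminescence-based dose-response confirmation of ultra-high-throughput screening hits, measuring inhibition of SENP7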
T2 sequence (Q9BQF6 whole entry): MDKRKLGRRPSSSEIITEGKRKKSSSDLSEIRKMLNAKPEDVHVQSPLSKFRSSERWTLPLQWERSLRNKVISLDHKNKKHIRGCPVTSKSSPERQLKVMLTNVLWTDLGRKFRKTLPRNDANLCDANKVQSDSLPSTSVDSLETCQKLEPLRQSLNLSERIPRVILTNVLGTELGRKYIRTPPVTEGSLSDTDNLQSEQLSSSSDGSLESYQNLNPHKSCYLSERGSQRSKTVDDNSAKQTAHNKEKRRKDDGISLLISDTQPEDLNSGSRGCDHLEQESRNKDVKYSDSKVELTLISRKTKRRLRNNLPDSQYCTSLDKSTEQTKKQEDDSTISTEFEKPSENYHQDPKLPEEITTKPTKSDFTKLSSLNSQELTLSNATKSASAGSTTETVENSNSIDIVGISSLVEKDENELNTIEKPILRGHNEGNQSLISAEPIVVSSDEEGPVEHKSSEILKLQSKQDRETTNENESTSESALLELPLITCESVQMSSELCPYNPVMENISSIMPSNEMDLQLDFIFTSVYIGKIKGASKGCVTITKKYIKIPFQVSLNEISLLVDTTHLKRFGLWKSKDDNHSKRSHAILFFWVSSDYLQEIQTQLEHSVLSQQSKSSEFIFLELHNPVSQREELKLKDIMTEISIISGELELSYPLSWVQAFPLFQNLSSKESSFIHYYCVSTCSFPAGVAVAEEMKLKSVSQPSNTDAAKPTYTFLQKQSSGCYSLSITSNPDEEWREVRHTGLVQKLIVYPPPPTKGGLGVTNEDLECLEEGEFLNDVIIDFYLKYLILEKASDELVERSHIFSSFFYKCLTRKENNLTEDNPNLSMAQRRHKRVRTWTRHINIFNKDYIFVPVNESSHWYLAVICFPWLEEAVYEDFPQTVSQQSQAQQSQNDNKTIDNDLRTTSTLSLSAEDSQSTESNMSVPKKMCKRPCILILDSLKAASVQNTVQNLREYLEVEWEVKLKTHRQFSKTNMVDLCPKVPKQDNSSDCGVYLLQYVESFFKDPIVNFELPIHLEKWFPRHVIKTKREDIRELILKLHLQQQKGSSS

[3] = biological target: T3, Sentrin-specific protease 6 (Homo sapiens, UniProt Q9GZR1);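 further: Luminescence-based dose-response confirmatory assay of SENP6 inhibition, following up an ultra-high-throughput screen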
T3 sequence (Q9GZR1 whole entry): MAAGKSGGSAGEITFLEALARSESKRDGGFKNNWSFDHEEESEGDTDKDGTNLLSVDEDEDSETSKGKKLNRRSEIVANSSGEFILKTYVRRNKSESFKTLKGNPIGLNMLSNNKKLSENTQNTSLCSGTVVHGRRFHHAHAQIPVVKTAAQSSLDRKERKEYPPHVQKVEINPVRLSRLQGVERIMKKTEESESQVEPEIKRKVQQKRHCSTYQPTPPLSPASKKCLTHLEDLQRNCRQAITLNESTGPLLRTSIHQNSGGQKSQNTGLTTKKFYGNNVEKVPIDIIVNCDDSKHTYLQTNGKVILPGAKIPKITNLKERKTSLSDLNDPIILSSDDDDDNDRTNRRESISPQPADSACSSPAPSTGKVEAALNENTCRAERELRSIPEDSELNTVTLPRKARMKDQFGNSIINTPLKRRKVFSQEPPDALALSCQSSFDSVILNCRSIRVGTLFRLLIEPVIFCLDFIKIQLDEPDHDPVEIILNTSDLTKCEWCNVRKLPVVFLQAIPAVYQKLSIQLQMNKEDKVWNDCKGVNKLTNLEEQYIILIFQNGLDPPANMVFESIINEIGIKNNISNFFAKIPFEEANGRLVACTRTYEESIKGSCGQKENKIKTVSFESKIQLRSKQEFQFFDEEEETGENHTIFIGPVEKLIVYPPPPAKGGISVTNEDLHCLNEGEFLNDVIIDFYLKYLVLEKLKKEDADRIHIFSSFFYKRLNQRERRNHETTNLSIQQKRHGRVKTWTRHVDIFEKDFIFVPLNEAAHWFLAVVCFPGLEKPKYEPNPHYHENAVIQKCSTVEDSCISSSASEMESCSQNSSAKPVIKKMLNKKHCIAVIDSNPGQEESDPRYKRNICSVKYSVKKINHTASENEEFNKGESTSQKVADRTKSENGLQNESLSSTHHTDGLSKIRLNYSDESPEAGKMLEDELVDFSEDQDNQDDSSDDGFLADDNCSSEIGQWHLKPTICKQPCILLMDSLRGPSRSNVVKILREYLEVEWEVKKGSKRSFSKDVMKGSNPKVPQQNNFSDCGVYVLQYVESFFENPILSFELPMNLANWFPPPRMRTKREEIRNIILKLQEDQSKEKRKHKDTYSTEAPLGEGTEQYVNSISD

Measured: IC50

O=C1C(Cl)=C(N2CCC(C(=O)O)CC2)C(=O)c2ccccc21
active: [1] 15.6 µM | [2] 29.1 µM | [3] 12.6 µM

COc1cc2c(cc1OC)-c1c(OC)c(OC)cc3c1[C@H](C2)N(C)CC3
active: [1] < 1.55 µM | [2] 7.64 µM | [3] 2.21 µM

From ChEMBL document CHEMBL1201862, “PubChem BioAssay data set” (2004)
